Assay results reported in patent publication US20240069010A1, “TISSUE ORGANOID BIOPRINTING AND HIGH-THROUGHPUT SCREENING METHODOLOGY” (priority 2020, published 2024).
Like-named read-outs stand apart in the source and are kept apart here.

Columns and labels:
MCF-7 organoids [1] = test: HSLCI mass tracking of bioprinted organoids in drug screening; type: cell-based; settings: for Mean mass of MCF-7 organoids, Mean mass ± SD: 48 hours of treatment; for Organoid Behavior (%) Stable / Organoid Behavior (%) Gained Mass / Organoid Behavior (%) Lost Mass: MCF-7 organoids; for Organoid Behavior (%) Stable: mass change <10%; for Organoid Behavior (%) Gained Mass: mass increase >10%; for Organoid Behavior (%) Lost Mass: mass loss >10%
Text: Cells were bioprinted using a CELLINK BioX with a Temperature-Controlled Printhead. Gcode files were written to print the desired single-layer geometry. We wrote standardized blocks of Gcode encode the print path for the repeated geometries. MATLAB (MathWorks, Inc.) was used to integrate these standardized blocks into full Gcode files with the defined coordinates for each well. We used 8-well plates when printing the larger constructs as the depth of the well in a standard 24-well plate prohibited the use of 0.5″ length needles. Large rings were necessary to deposit a sufficient number of cells for RNA-Seq and IHC. Four rings with a diameter of 14.5 mm were printed for RNA sequencing (approximately 200,000 cells total), while four sets of concentric 14.5 mm, 12.5 mm, and 10.5 mm diameter rings were used for IHC analysis (approximately 500,000 cells total). We printed mini-squares with side length 3.9 mm for drug screening and HSLCI imaging. The mini-squares were inscribed within the circular well with sides parallel to the sides of the well plate. The open center of the constructs facilitates automatic manipulation with fluid handling equipment while the sides of the square are positioned to maximize the number of organoids imaged by HSLCI. The bioprinting process utilized the same material deposited for manually seeded organoids. A single cell suspension, aggregates or clusters in a 3:4 mixture of MammoCult™ and Matrigel® was prepared on ice. After vortexing briefly to homogenize, the mixture was transferred into a 3 mL syringe by removing the plunger and capping the opposite end. Once the plunger was replaced, the syringe was inverted, and bubbles were forced out of the tip. The material was then transferred to a room temperature 3 mL bioprinter cartridge (CELLINK) by connecting the syringe and cartridge with a double-sided female Luer lock adapter (CELLINK). Any air bubbles in the syringe were removed and the loaded cartridge was incubated in a rotating incubator (Enviro-Genie, Scientific Industries) for 30 minutes at the print temperature.
During the incubation period, the printer was sterilized with the built-in UV irradiation function and the printhead was set to the print temperature. […] The well masks were autoclaved prior to use. The masks were inserted into the well plate and pressed in contact with the glass surface. Rubber bands were used to hold the masks in place and ensure conformal contact was maintained throughout the plasma treatment. The well plates were treated with oxygen plasma in a PE-25 (Plasma Etch) for 30-90 seconds, 15 minutes prior to bioprinting. After plasma treatment, the well plate was placed in the bioprinter and Automatic Bed Levelling (ABL) was performed.
Once the incubation period ended, we attached a 0.5″ 25-gauge needle and loaded the cartridge into the pre-cooled printhead. We primed the needle by extruding a small volume of material at 15 kPa prior to calibrating the printer. Just before printing, we cleared the needle of the gelled material by extruding a small volume using 40 kPa prior to starting the print. To create constructs of the appropriate thicknesses, prints in 8-well plates were extruded at 15 kPa while prints in 96-well plates were extruded at 12-15 kPa. […] After printing, the constructs were incubated at 37° C. for at least 30 minutes to solidify the matrix and 100 μL of MammoCult™ medium was then added.
The HSLCI platform was installed inside a standard cell culture incubator. For all growth kinetics studies and drug screening, organoids were imaged in 96-well glass-bottom plates (Cellvis P96-1.5H-N) using a 40× objective (Nikon, NA 0.75). Organoids were seeded as single-cell suspensions in a 3:4 mixture of MammoCult™ and Matrigel® as described above and were grown at 37° C. and 5% CO2 in MammoCult™ medium supplemented with 1% antibiotic-antimycotic (Gibco 15240-062).

MCF-7 organoids [2] = test: Endpoint ATP-release assay (CellTiter-Glo) of organoid viability; type: cell-based; settings: for viability at 0.1 µM / viability at 1 µM / viability at 10 µM: Homo sapiens; for Organoid viability by endpoint ATP assay, Viability ± SD: MCF-7, 72 h of treatment, luminescence relative to 1% DMSO control
Protocol: All drug treatments of 3D organoids were performed in serum-free conditions in MammoCult™ medium supplemented with 1% antibiotic-antimycotic (Gibco 15240-062). A detailed protocol for the drug screening has been published previously in Phan, N. et al. supra; and Nguyen, H. T. L. & Soragni, supra. Briefly, the culture medium was fully removed three days after seeding and replaced with 100 μL of MammoCult™ medium containing the indicated treatments using an automated pipetting system (EpMotion® 96). After treatment, we transferred the organoids to the HSLCI for imaging. Organoids were imaged by HSLCI between 6 hours and 48 hours after treatment. After imaging, we performed an ATP assay to assess cell viability in accordance with the manufacturer's instructions. The media was aspirated from each well and replaced with 50 μL of 5 mg/mL Dispase (Thermo-Fisher) solution to digest the Matrigel. After a 25-minute incubation at 37° C., the plate was placed on an orbital shaker for 5 minutes at 80 RPM. We then added 30 μL of CellTiter-Glo® reagent (Promega), sealed the plate with film, covered the plate with foil to protect from light, shook the plate for 5 minutes at 80 RPM, and incubated at room temperature for an additional 20 minutes. We used a SpectraMax iD3 plate reader to measure luminescence. The program parameters for luminescence readings were 5 minutes of shaking prior to reading, reading all wavelengths, and integrating signal over 500 ms. Organoid viability within each well was calculated by dividing the luminescent signal from each well by the mean luminescence of the control (1% DMSO) wells. Two-tailed independent t-tests were performed to assess the statistical significance of the differences in organoid mass and cell viability. P-values less than 0.05 were deemed significant.

[3] = MCF7, 6 h, read-out: Comparisons of cell viability measures by ATP detection assay, Mean mass ± SD
[4] = MCF7, 72 h, read-out: Organoid viability by endpoint ATP assay, Viability ± SD

## CN[C@@H]1C[C@H]2O[C@@](C)([C@@H]1OC)n1c3ccccc3c3c4c(c5c6ccccc6n2c5c31)C(=O)NC4 [Staurosporine, staurosporine]
MCF-7 organoids [1]; 1 μM
  Mean mass of MCF-7 organoids, Mean mass ± SD: 1.33 ± 1.07 ng
MCF-7 organoids [1]; 1 μM, listed as staurosporine
  Mean mass of MCF-7 organoids, Mean mass ± SD: 1.33 ± 1.08 ng
MCF-7 organoids [1]; 10 μM
  Mean mass of MCF-7 organoids, Mean mass ± SD: 1.26 ± 0.78 ng
MCF-7 organoids [1]; 10 μM, listed as staurosporine
  Mean mass of MCF-7 organoids, Mean mass ± SD: 1.26 ± 0.80 ng
MCF-7 organoids [1]; 0.1 μM, 12 h
  Organoid Behavior (%) Stable: 76.5%
  Organoid Behavior (%) Gained Mass: 8.8%
  Organoid Behavior (%) Lost Mass: 14.7%
MCF-7 organoids [1]; 0.1 μM, 24 h
  Organoid Behavior (%) Stable: 60.5%
  Organoid Behavior (%) Lost Mass: 23.3%
MCF-7 organoids [1]; 0.1 μM, 48 h
  Organoid Behavior (%) Stable: 38.2%
  Organoid Behavior (%) Gained Mass: 29.4%
  Organoid Behavior (%) Lost Mass: 32.4%
MCF-7 organoids [1]; 1 μM, 12 h
  Organoid Behavior (%) Stable: 82.1%
  Organoid Behavior (%) Gained Mass: 7.1%
  Organoid Behavior (%) Lost Mass: 10.7%
MCF-7 organoids [1]; 1 μM, 24 h
  Organoid Behavior (%) Stable: 71.4%
  Organoid Behavior (%) Gained Mass: 3.6%
  Organoid Behavior (%) Lost Mass: 25.0%
MCF-7 organoids [1]; 1 μM, 48 h
  Organoid Behavior (%) Stable: 73.3%
  Organoid Behavior (%) Lost Mass: 26.7%
MCF-7 organoids [1]; 10 μM, 12 h
  Organoid Behavior (%) Stable: 79.6%
  Organoid Behavior (%) Gained Mass: 2.0%
  Organoid Behavior (%) Lost Mass: 18.4%
MCF-7 organoids [1]; 10 μM, 24 h
  Organoid Behavior (%) Stable: 51.4%
  Organoid Behavior (%) Gained Mass: 0.0%
  Organoid Behavior (%) Lost Mass: 48.6%
MCF-7 organoids [1]; 10 μM, 48 h
  Organoid Behavior (%) Stable: 32.1%
  Organoid Behavior (%) Gained Mass: 3.6%
  Organoid Behavior (%) Lost Mass: 64.3%
MCF-7 organoids [2]; [3]
  viability at 0.1 µM: 50 ± 8%
  viability at 1 µM: 17 ± 4%
  viability at 10 µM: 13 ± 3%
MCF-7 organoids [2]; [4]
  viability at 0.1 µM: 50 ± 8%
  viability at 1 µM: 17 ± 4%
  viability at 10 µM: 13 ± 3%
MCF-7 organoids [2]; 1 μM
  Organoid viability by endpoint ATP assay, Viability ± SD: near-zero viability
MCF-7 organoids [2]; 10 μM
  Organoid viability by endpoint ATP assay, Viability ± SD: near-zero viability
